Values of other authors, collected in patent publication US20260272826A1 (THEAPRIN PHARMACEUTICALS, INC., priority 2017, published 2026).

Columns and labels:
[1] = tribasic
[2] = test system: rats; details: rat, in vivo
[3] = test system: thrombin stimulated thromboxane formulation in whole blood; details: theanine by itself

Row | Structure (SMILES) | pKa 1 ([1]; first of pKa 1-3) | pKa 2 ([1]; second of pKa 1-3) | pKa 3 ([1]; third of pKa 1-3) | LD50 toxicity [2] | solubility in water | inhibition of thrombin stimulated thromboxane formulation [3]
1 | O=C(O)CC(O)(CC(=O)O)C(=O)O [Citric Acid, 2-hydroxypropane-1,2,3-tricarboxylic acid] | 5.21 | 4.28 | 2.92 |  |  | 
2 | CCNC(=O)CC[C@H](N)C(=O)O [L-theanine, N-ethyl-L-glutamine] |  |  |  | > 5000 mg/kg | soluble in water | potent inhibitor
